# In patent US6586425B2, “Cytoskeletal active agents for glaucoma therapy” (Wisconsin Alumni Research Foundation, priority 1996, dated 2003):
# Like-named read-outs stand apart in the source and are kept apart here.
# What was measured:
# [1] = test system: living monkey eyes; experiment: Intraocular pressure by Goldmann applanation tonometry; format: in vivo, cynomolgus monkeys (Macaca fascicularis)
# Description: The intraocular pressure (IOP) was determined with a “minified” Goldmann applanation tonometer (Kaufman and Davis, Arch. Ophthalmol., 98:542-546[1980]), using “Half and Half®” creamer solution (Borden) as the tear film indicator (Croft et al., in Lakshminarayanan (ed.), Basic and Clinical Applications of Vision Science, Dordtecht, Kluwer, [1997], pp. 213-216), with the monkey lying prone in a head holder and the eyes positioned 4 to 8 cm above the heart. All monkeys were examined by slit-lamp before the first IOP measurement in each protocol. For each eye, two or three IOP measurements were averaged as a baseline.
# After baseline IOP was measured, 21 or 42 μg LAT-A or 4 μg LAT-B were administered to the central cornea of supine monkeys in one eye and the vehicle to the opposite eye. Blinking was prevented with lid speculums during and for 5 min. after drug administration (taking care to avoid touching the globe), to maximize drug penetration into the AC and minimize systemic absorption. Following drug administration, the speculums were gently removed and the monkeys were kept in the supine position for another 15 min to further facilitate penetration of drug/vehicle solution into the AC. For LAT-A, IOP was then measured every hr for 7 to 9 hr beginning 1, 6, or 15 hr after the 21 gg dose, or beginning 1 or 6 hr after the 42 μg dose, and again at 24 hr. Each protocol included two groups of monkeys. Group one (6 monkeys) underwent IOP measurement from 1-9 hr and again at 24 hr after the drug; group two (6 monkeys) were measured from 6-13 hr for both doses and again from 15 hr-21 hr on a separate occasion for the 21 μg dose. For both doses, one monkey in group one was used again in group two; therefore its two readings measured at baseline or the period 6-9 hr after the drug on the two different occasions was averaged for data analysis. Thus, “n” for baseline and the period 6-9 hr post-drug is 11 rather than 12. During intervals between the post-drug reading at 9 hr and that at 24 hr for group one or between the drug administration and the first post-drug reading at 6 hr for group two, the animals were returned to the Animal Care Unit for recovery. For LAT-B, IOP was measured every hr for 6 hr beginning 1 hr after the 4 μg dose, and again at 24 hr. The animals were returned to the Animal Care Unit for recovery between the measurements at 6 hr and 24 hr. Anterior segments were examined by slit-lamp at 3, 6, 10 or 24 hr after LAT-A, or at 1, 3, 6 or 24 hr after LAT-B.
# [2] = test system: living monkey eyes; experiment: Aqueous humor flow and corneal endothelial transfer coefficient ka by fluorophotometry; settings: for AHF Rx, LAT-B/Vehicle / AHF Rx/BL, LAT-B eye / AHF Rx/BL, LAT-B/Vehicle / ka Rx, LAT-B eye / ka Rx, LAT-B/Vehicle / ka Rx/BL, LAT-B eye / ka Rx/BL, LAT-B/Vehicle: 4.0 μg LAT-B topical
# [3] = test system: corneal endothelium; settings: 42 μg LAT-A topical, n=4
# [4] = test system: living monkey eye; settings: in vivo
# [5] = test system: living monkey eyes; experiment: Slit lamp biomicroscopy (ocular tolerability); format: in vivo, cynomolgus monkeys (Macaca fascicularis)
# Description: e) Ocular Tolerability/Toxicity: Ocular exams, including slit lamp biomicroscopy (Zeiss or Haag-Streit), gonioscopy, and binocular indirect ophthalmoscopy (American Optical or Keeler), were performed by a trained ophthalmologist, using when necessary contact lenses specially fabricated for the small monkey eye (Kaufman and Wallow, Exp. Eye Res., 40:883-885[1985]). In addition, specular microscopy was used to evaluate drug effects on the corneal endothelium.
# The AC of both eyes of was cannulated with a branched needle as above, after which baseline facility measurements were taken for 35-45 min. With reservoirs closed, 2×5 μl drops of 200 μM (˜0.8 μg) or 4×5 μl drops of 500 μM (˜4.0 μg) LAT-B were given to one eye of the prone monkey, allowing 60-90 sec between drops. […] Vehicle (10 or 25% DMSO respectively) was given simultaneously to the opposite eye in a similar manner. The doses were chosen to give […] and 1 μM LAT-B concentrations respectively in the 100 μl monkey AC (See e.g., Erickson-Lamy et al., Arch. Opthalmol., 102:1815-1820[1984]), assuming 1% penetration and no initial drug loss from the AC (Asseff et al., Amer. J. Ophthalmol., 75:212-215[1973]; Harris, in Leopold (ed.), Symposium on Ocular Therapy, C. V. Mosby, St. Louis, Mo., [1968], pp. 96-105; Janes and Stiles, Arch. Ophthahnol., 62:69-74[1959]). The perfusion system remained closed for 2 hr, after which facility measurements were taken for 90 min. Biomicroscopy was performed by an ophthalmologist before and 3, 7 and 14 days after drug administration.
# For slit lamp biomicroscopy, a trained ophthalmologist examined all eyes by slit lamp, for integrity of the corneal epithelium and endothelium, presence of flare or cells in the anterior chamber and clarity of the lens. All animals were free of ocular abnormalities when studied.
smiles,measurement,setting,value
C/C1=C/C(=O)O[C@@H]2C[C@@H](CC[C@H](C)/C=C\CC1)O[C@@](O)([C@@H]1CSC(=O)N1)C2 [LAT-B],"maximal IOP reduction, adjusted for baseline and contralateral control eyes","[1]; 4 μg LAT-B topical, 6 hr, n=8",3.1±1.2 mmHg
same,IOP,"[1]; 4 μg LAT-B topical, at 6 hr (from 17 mmHg)",13.5 mmHg
same,IOP,"[1]; 4 μg LAT-B topical, within 1 hr (from 17 mmHg)",15 mmHg
same,time to IOP reduction after administration,"[1]; living monkeys, topical",≤ 1 h
same,effect on AHF,"[2]; 4 μg LAT-B topical, first 3 hr","small, insignificant increase in AHF"
same,increase in ka,"[2]; 4 μg LAT-B topical, first 3 hr",58±20%
same,increase in ka,"[2]; 4 μg LAT-B topical, overall 6 hr, n=6",39±5%
same,"AHF Rx, LAT-B/Vehicle","[2]; hour 0.5 to 3.0, n=6",1.33
same,"AHF Rx/BL, LAT-B eye","[2]; hour 0.5 to 3.0, n=6",1.31
same,"AHF Rx/BL, LAT-B/Vehicle","[2]; hour 0.5 to 3.0, n=6",1.33
same,"ka Rx, LAT-B eye","[2]; hour 0.5 to 3.0, n=6",0.00735 min⁻¹
same,"ka Rx, LAT-B/Vehicle","[2]; hour 0.5 to 3.0, n=6",1.62
same,"ka Rx/BL, LAT-B eye","[2]; hour 0.5 to 3.0, n=6",1.44
same,"ka Rx/BL, LAT-B/Vehicle","[2]; hour 0.5 to 3.0, n=6",1.58
same,"AHF Rx, LAT-B/Vehicle","[2]; hour 0.5 to 6.0, n=6",1.14
same,"AHF Rx/BL, LAT-B eye","[2]; hour 0.5 to 6.0, n=6",1.04
same,"AHF Rx/BL, LAT-B/Vehicle","[2]; hour 0.5 to 6.0, n=6",1.16
same,"ka Rx, LAT-B eye","[2]; hour 0.5 to 6.0, n=6",0.00648 min⁻¹
same,"ka Rx, LAT-B/Vehicle","[2]; hour 0.5 to 6.0, n=6",1.34
same,"ka Rx/BL, LAT-B eye","[2]; hour 0.5 to 6.0, n=6",1.33
same,"ka Rx/BL, LAT-B/Vehicle","[2]; hour 0.5 to 6.0, n=6",1.39
same,"AHF Rx, LAT-B/Vehicle","[2]; hour 3.5 to 6.0, n=6",0.93
same,"AHF Rx/BL, LAT-B eye","[2]; hour 3.5 to 6.0, n=6",0.84
same,"AHF Rx/BL, LAT-B/Vehicle","[2]; hour 3.5 to 6.0, n=6",0.91
same,"ka Rx, LAT-B eye","[2]; hour 3.5 to 6.0, n=6",0.0063 min⁻¹
same,"ka Rx, LAT-B/Vehicle","[2]; hour 3.5 to 6.0, n=6",1.21
same,"ka Rx/BL, LAT-B eye","[2]; hour 3.5 to 6.0, n=6",1.31
same,"ka Rx/BL, LAT-B/Vehicle","[2]; hour 3.5 to 6.0, n=6",1.25
same,"Cell count Exp, drug eye",[3]; 3 days,2188 ± 430 cell per square millimeter
same,"Cell count Exp, drug/Vehicle",[3]; 3 days,0.86 ± 0.11
same,"Cell count Exp, drug−Vehicle",[3]; 3 days,−281 ± 248 cell per square millimeter
same,"Cell count Exp/BL, drug eye",[3]; 3 days,0.83 ± 0.14
same,"Cell count Exp/BL, drug/Vehicle",[3]; 3 days,0.80 ± 0.11
same,"Cell count Exp/BL, drug−Vehicle",[3]; 3 days,−0.18 ± 0.10
same,"Cell count Exp, drug eye",[3]; 7 days,2494 ± 166 cell per square millimeter
same,"Cell count Exp, drug/Vehicle",[3]; 7 days,1.04 ± 0.03
same,"Cell count Exp, drug−Vehicle",[3]; 7 days,94 ± 68 cell per square millimeter
same,"Cell count Exp/BL, drug eye",[3]; 7 days,0.94 ± 0.04
same,"Cell count Exp/BL, drug/Vehicle",[3]; 7 days,0.96 ± 0.02
same,"Cell count Exp/BL, drug−Vehicle",[3]; 7 days,−0.04 ± 0.02
same,"Cell count Exp, drug eye",[3]; 14 days,2581 ± 143 cell per square millimeter
same,"Cell count Exp, drug/Vehicle",[3]; 14 days,1.03 ± 0.05
same,"Cell count Exp, drug−Vehicle",[3]; 14 days,75 ± 108 cell per square millimeter
same,"Cell count Exp/BL, drug eye",[3]; 14 days,0.98 ± 0.02
same,"Cell count Exp/BL, drug/Vehicle",[3]; 14 days,0.95 ± 0.03
same,"Cell count Exp/BL, drug−Vehicle",[3]; 14 days,−0.05 ± 0.03
same,"BL2/BL1, LAT-B eye",[4],0.90 ± 0.05
same,"BL2/BL1, LAT-B/Veh",[4],0.96 ± 0.06
same,"Baseline facility BL2, LAT-B eye",[4],0.33 ± 0.03 μl min^−1 mmHg^−1
same,"Baseline facility BL2, LAT-B/Veh",[4],1.01 ± 0.08
same,baseline facility vs baseline immediately prior to LAT-B,[4],not significantly different
same,"facility increase, average over 90 min",[4],456±128%
same,initial post-drug facility increase over final baseline value,[4],379±125%
same,potency relative to LAT-A in the live monkey TM,[4],at least 10 fold
same,recovery of corneal endothelium,[5]; 4 μg LAT-B,"by 6 hr, the corneal endothelium of almost all treated eyes had recovered"
same,biomicroscopy findings,"[5]; LAT-B 0.8 μg topical, 3 days after drug and AC perfusion",no adverse effects
same,biomicroscopy findings,"[5]; LAT-B 4.0 μg topical, day 3 after perfusion",two drug-treated eyes exhibited a small clot of blood in the AC
same,biomicroscopy findings,"[5]; LAT-B topical, day 7",all eyes appeared biomicroscopically normal
same,lens appearance,[5]; after topical drug,always appeared normal
same,corneal epithelium at slit lamp,[5]; topical LAT-A (21 or 42 μg) or LAT-B (4 μg) in 25% DMSO,mild transient corneal epithelial cloudiness
same,eyes that developed flare (1-2+ on a scale of 0-4+),"[5]; topical, recovered by 24-48 hr",one LAT-B-treated eye
